Source: patent publication US6737383B1, “Herbicidal oxadiazolidines” (priority 1999, dated 2004)

Tests used:
bedstraw = assay: Test B pre/postemergence bedstraw; type: in vivo, Galium aparine
Summary of the method: (§1)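 Test chemicals in a non-phytotoxic solvent mixture with surfactant were sprayed preemergence onto planted seeds and postemergence onto plants 2 to 18 cm tall (1- to 4-leaf stage). After twelve to sixteen days in a greenhouse, injury was visually rated against untreated controls from 0 (no effect) to 10 (complete control).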

blackgrass = assay: Test B pre/postemergence blackgrass; type: in vivo, Alopecurus myosuroides
Summary of the method: as §1

surinam grass = assay: Test B pre/postemergence surinam grass; type: in vivo, Brachiaria decumbens
Summary of the method: as §1

cocklebur = assay: Test B pre/postemergence cocklebur; type: in vivo, Xanthium strumarium
Summary of the method: as §1

corn = assay: Test B pre/postemergence corn; type: in vivo, Zea mays
Summary of the method: as §1

giant foxtail = assay: Test B pre/postemergence giant foxtail; type: in vivo, Setaria faberii
Summary of the method: as §1

morningglory = assay: Test B pre/postemergence morningglory; type: in vivo, Ipomoea hederacea
Summary of the method: as §1

pigweed = assay: Test B pre/postemergence pigweed; type: in vivo, Amaranthus retroflexus
Summary of the method: as §1

rape = assay: Test B pre/postemergence rape; type: in vivo, Brassica napus
Summary of the method: as §1

sugar beet = assay: Test B pre/postemergence sugar beet; type: in vivo, Beta vulgaris
Summary of the method: as §1

velvetleaf = assay: Test B pre/postemergence velvetleaf; type: in vivo, Abutilon theophrasti
Summary of the method: as §1

purple nutsedge = assay: Test B pre/postemergence purple nutsedge; type: in vivo, Cyperus rotundus
Summary of the method: as §1

rice = assay: Test B flood test rice; type: in vivo, Oryza sativa
Summary of the method: (§2)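 Each value is a visual injury score relative to controls, with 10 meaning complete control and 0 no effect. Evaluation took place twelve to sixteen days after the 2-leaf-stage plants were treated and kept in the greenhouse.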

duck salad = assay: Test B flood test duck salad; type: in vivo, Heteranthera limosa
Summary of the method: as §2

bamyardgrass = assay: Test B flood test barnyardgrass; type: in vivo, Echinochloa crus-galli
Summary of the method: as §2

[1] = Postemergence, Rate 125 g/ha, scale of 0 to 10 where 0 is no effect and 10 is complete control
[2] = Preemergence, Rate 62 g/ha, scale 0 to 10 (0 no effect, 10 complete control)
[3] = Preemergence, Rate 125 g/ha, 0 is no effect, 10 is complete control
[4] = Preemergence, Rate 250 g/ha, scale 0 to 10, 0 is no effect, 10 is complete control
[5] = Preemergence, Rate 500 g/ha, scale 0 to 10 (0 no effect, 10 complete control)
[6] = Rate 62 g/ha, Postemergence, scale of 0 to 10 where 0 is no effect and 10 is complete control
[7] = Rate 250 g/ha, Postemergence, scale 0 to 10, 0 is no effect, 10 is complete control
[8] = Rate 500 g/ha, Postemergence, scale 0 to 10
[9] = Postemergence (flood test species), Rate 125 g/ha, scale of 0 to 10 where 0 is no effect and 10 is complete control
[10] = Rate 62 g/ha, Postemergence section, flood test species, scale of 0 to 10 where 0 is no effect and 10 is complete control
[11] = Rate 250 g/ha, Postemergence (flood test), scale 0 to 10, 0 is no effect, 10 is complete control
[12] = Rate 500 g/ha, listed under Postemergence (flood test species), scale 0 to 10

C=CCn1c(=O)on(C(=O)N(c2ccc(F)cc2F)C(C)C)c1=O [Compound 151]
2: Plant response rating, Cocklebur (cocklebur; [7]) | Cocklebur plant response rating (cocklebur; [8]) | Plant response rating, Corn (corn; [7]) | Rape plant response rating (rape; [2]) | Rape plant response rating (rape; [8]) | Sugarbeets plant response rating (sugar beet; [6]) | Nutsedge plant response rating (purple nutsedge; [5]) | Nutsedge plant response rating (purple nutsedge; [6]) | Ducksalad plant response rating (duck salad; [12])
10: Blackgrass plant response rating (blackgrass; [4]) | Blackgrass plant response rating (blackgrass; [5]) | Giant foxtail plant response rating (0 to 10 scale) (giant foxtail; [3]) | Giant foxtail plant response rating (giant foxtail; [4]) | Giant foxtail plant response rating (giant foxtail; [5]) | Redroot pigweed plant response rating (pigweed; [2]) | Redroot pigweed plant response rating (0 to 10 scale) (pigweed; [3]) | Redroot pigweed plant response rating (pigweed; [4]) | Redroot pigweed plant response rating (pigweed; [5]) | Rape plant response rating (rape; [4]) | Rape plant response rating (rape; [5]) | Sugarbeets plant response rating (sugar beet; [4]) | Sugarbeets plant response rating (sugar beet; [5]) | Velvetleaf plant response rating (velvetleaf; [4]) | Velvetleaf plant response rating (velvetleaf; [5])
7: Bedstraw plant response rating (bedstraw; Rate 500 g/ha, Postemergence, scale 0 to 10, 0 no effect, 10 complete control) | B. signalgrass plant response rating (surinam grass; [5]) | B. signalgrass plant response rating (surinam grass; Rate 500 g/ha, Postemergence, scale of 0 to 10 where 0 is no effect and 10 is complete control) | Giant foxtail plant response rating (giant foxtail; [6]) | Redroot pigweed plant response rating (pigweed; [8])
9: Blackgrass plant response rating (0 to 10 scale) (blackgrass; [3]) | Blackgrass plant response rating (blackgrass; [8]) | Corn plant response rating (corn; [5]) | Giant foxtail plant response rating (giant foxtail; [2])
5: B. signalgrass plant response rating (surinam grass; [4]) | Corn plant response rating (corn; [4]) | Plant response rating, Redroot pigweed (pigweed; [7]) | Velvetleaf plant response rating (velvetleaf; [8]) | Plant response rating, Nutsedge (purple nutsedge; [7]) | Nutsedge plant response rating (purple nutsedge; [8])
1: Sugarbeets plant response rating (sugar beet; [2])
0: Bedstraw plant response rating (bedstraw; [2]) | Bedstraw plant response rating (0 to 10 scale) (bedstraw; [3]) | Bedstraw plant response rating (bedstraw; [4]) | Bedstraw plant response rating (bedstraw; [5]) | Cocklebur plant response rating (cocklebur; [1]) | Cocklebur plant response rating (cocklebur; [2]) | Cocklebur plant response rating (cocklebur; [4]) | Cocklebur plant response rating (cocklebur; [5]) | Cocklebur plant response rating (cocklebur; [6]) | Corn plant response rating (corn; [1]) | Corn plant response rating (corn; [2]) | Corn plant response rating (0 to 10 scale) (corn; [3]) | Corn plant response rating (corn; [6]) | Morningglory plant response rating (morningglory; [2]) | Morningglory plant response rating (0 to 10 scale) (morningglory; [3]) | Morningglory plant response rating (morningglory; [4]) | Morningglory plant response rating (morningglory; [5]) | Rape plant response rating (rape; [1]) | Rape plant response rating (rape; [6]) | Plant response rating, Rape (rape; [7]) | Nutsedge plant response rating (purple nutsedge; [2]) | Nutsedge plant response rating (0 to 10 scale) (purple nutsedge; [3]) | Nutsedge plant response rating (purple nutsedge; [4]) | Rice plant response rating (rice; [9]) | Rice plant response rating (rice; [10]) | Plant response rating, Rice (rice; [11]) | Rice plant response rating (rice; [12]) | Ducksalad plant response rating (duck salad; [9]) | Ducksalad plant response rating (duck salad; [10]) | Plant response rating, Ducksalad (duck salad; [11]) | Barnyardgrass plant response rating (bamyardgrass; [9]) | Barnyardgrass plant response rating (bamyardgrass; [10]) | Plant response rating, Barnyardgrass (bamyardgrass; [11])
6: Plant response rating, B. signalgrass (surinam grass; [7]) | Corn plant response rating (corn; [8]) | Plant response rating, Morningglory (morningglory; [7]) | Morningglory plant response rating (morningglory; [8]) | Velvetleaf plant response rating (velvetleaf; [2])
8: Blackgrass plant response rating (blackgrass; [1]) | Blackgrass plant response rating (blackgrass; [2]) | Blackgrass plant response rating (blackgrass; [6]) | Plant response rating, Blackgrass (blackgrass; [7]) | Giant foxtail plant response rating (giant foxtail; [1]) | Plant response rating, Giant foxtail (giant foxtail; [7]) | Giant foxtail plant response rating (giant foxtail; [8]) | Rape plant response rating (0 to 10 scale) (rape; [3]) | Sugarbeets plant response rating (0 to 10 scale) (sugar beet; [3]) | Velvetleaf plant response rating (0 to 10 scale) (velvetleaf; [3]) | Barnyardgrass plant response rating (bamyardgrass; Rate 500 g/ha, listed under Postemergence (flood test species), scale 0 to 10, 0 no effect, 10 complete control)
3: Bedstraw plant response rating (bedstraw; [1]) | Bedstraw plant response rating (bedstraw; [6]) | B. signalgrass plant response rating (surinam grass; [6]) | Redroot pigweed plant response rating (pigweed; [1]) | Redroot pigweed plant response rating (pigweed; [6]) | Sugarbeets plant response rating (sugar beet; [1]) | Plant response rating, Sugarbeets (sugar beet; [7]) | Sugarbeets plant response rating (sugar beet; [8]) | Velvetleaf plant response rating (velvetleaf; [6]) | Plant response rating, Velvetleaf (velvetleaf; [7]) | Nutsedge plant response rating (purple nutsedge; [1])
4: Plant response rating, Bedstraw (bedstraw; [7]) | B. signalgrass plant response rating (surinam grass; [1]) | B. signalgrass plant response rating (surinam grass; [2]) | Morningglory plant response rating (morningglory; [6])
